The source of these data is paper PMC9744561 (Genes, Brain, and Behavior, 2022).

pIC50: −log10 of the molar value.

This assay deals with T1, Octα2R (α2-adrenergic-like octopamine receptor) (Drosophila melanogaster, UniProt Q9VE32).
T1 sequence (Q9VE32 1-699): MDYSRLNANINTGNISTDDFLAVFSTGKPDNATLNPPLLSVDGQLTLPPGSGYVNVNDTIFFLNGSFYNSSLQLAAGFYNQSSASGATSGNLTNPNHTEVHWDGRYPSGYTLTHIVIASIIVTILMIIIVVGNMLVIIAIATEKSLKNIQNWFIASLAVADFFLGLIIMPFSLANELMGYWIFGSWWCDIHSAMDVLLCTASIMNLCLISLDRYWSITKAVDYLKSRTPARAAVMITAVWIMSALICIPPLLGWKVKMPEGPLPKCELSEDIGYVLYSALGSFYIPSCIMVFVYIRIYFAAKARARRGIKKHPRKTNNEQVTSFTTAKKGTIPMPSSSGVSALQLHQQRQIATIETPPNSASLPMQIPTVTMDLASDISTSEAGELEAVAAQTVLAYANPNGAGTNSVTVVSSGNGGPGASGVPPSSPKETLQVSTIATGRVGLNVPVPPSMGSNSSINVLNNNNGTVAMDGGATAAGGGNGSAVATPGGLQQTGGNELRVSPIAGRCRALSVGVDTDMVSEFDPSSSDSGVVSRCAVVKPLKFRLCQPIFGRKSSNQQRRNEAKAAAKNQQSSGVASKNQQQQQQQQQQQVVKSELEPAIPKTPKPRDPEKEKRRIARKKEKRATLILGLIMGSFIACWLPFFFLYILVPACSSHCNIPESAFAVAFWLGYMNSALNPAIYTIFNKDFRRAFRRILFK
Kind of assay: aequorin Ca2+ luminescence, inhibition of octopamine response, HEK-293 cells. The class given is cell-based.
As to `Cc1ccc(N(CC2=NCCN2)c2cccc(O)c2)cc1` [PA, phentolamine], the pIC50 (commonly −log10 of the IC50, conventionally taken in molar units) is 7.03.
As for `NC1=NCC2c3ccccc3Cc3ccccc3N12` (stereo not drawn) [EP, epinastine], the figure is 7.00.
In turn, `COC(=O)[C@@H]1[C@H]2C[C@H]3c4[nH]c5ccccc5c4CCN3C[C@@H]2CC[C@@H]1O` [YO, yohimbine] gave a pIC50 of 4.74. Compared with the last compound, the pIC50 is 2.26 log units lower.
